One data set deals with T1, hCA XII (Homo sapiens, UniProt O43570).
T1 construct: made in house
The data set can be described thus: stopped-flow CO2 hydrase assay, hCA XII. Type of data set: biochemical. To be noted: for Ki: stopped flow technique, mean from 3 different assays.

The target in another data set is T2, hCA IX (Homo sapiens, UniProt Q16790).
T2 construct: made in house
The data set can be described thus: stopped-flow CO2 hydrase assay, hCA IX. Type of data set: biochemical.

A further data set concerns caspase 9. Description: Western blot of caspase 9 in MDA-MB-468 cells. It counts as cell-based. The text has this: (§1) Caspases, cysteine-containing aspartic acid-specific proteases, afford essential factors in cell networks that control and regulate death of the cell. Caspase-3 is a vital executioner protease which is triggered by cascade of initiator caspases such as caspase-9 [49]. This study was further extended to explore the apoptosis mechanism of compound 12d upon breast cancer, MDA-MB-468, cells by measuring the expression of apoptosis biomarkers (cleaved caspase 3 and caspase 9) via Gel electrophoresis and immune-blot analysis of proteins (Western Blot) using β-actin to normalize the loading. […] Accordingly, compound 12d have the ability to induce apoptosis in MDA-MB-468 cancer cells probably by pathways involving both caspase3 and caspase9.
(§2) MDA-MB-468 cells, were harvested on dishes of cell culture and treated for 24 h with compound 12d. An equal amount of protein transferred to PVDF membranes after separated by SDS-PAGE (5–15%). Skim milk with concentration 5% was used to block the blotted membranes for 1 h before being incubated with the desired primary antibodies at 37 °C for 1 h. Colorimetric technique was used to visualize immune reactive bands using Geldoc-it, UVP, England. To quantify equal loading, membrane was reseeded with β-actin antibody.
(§3) Eelectrophoresed proteins on SDS-PAGE were transferred to a Hybond™ nylon membrane (GE Healthcare) via TE62 Standard transfer tank with Cooling Chamber (Hoefer Inc. and incubate for 1 hour at room temperature in Blocking Solution. Additionally, β-actin (abcam, ab8227) was applied as housekeeping protein.
(§4) - Membrane was incubated the overnight at 4°C in antibody solution containing caspase isoform (Cell Signalling) separately for each antibody.
(§5) - Colorimetric technique was used to visualize immune reactive bands using Geldoc-it, UVP, England. Each experiment was run in triplicate.
In general terms: Immunoblotting shows a protein as a band on a membrane.

Data set [1] concerns Breast cancer (MDA-MB-468). Description: NCI single dose SRB screen, MDA-MB-468. To be noted: for inhibition at 10 µM: Homo sapiens, MDA-MB-468, 48 h, 10^−5 M single dose, 48 h, SRB, read-out: GI% Breast cancer (MDA-MB-468); for GI% Normoxia MDA-MB-468: normoxic condition (5% CO2, 95% air at 37 °C), NCI protocol. Type of data set: cell-based. The gist of the method: (§6)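 The NCI 60-cell-line panel was screened at a single 10 µM dose with 48 h drug exposure. Cell growth and viability were measured by sulforhodamine B colorimetric assay, per the NCI Drug Evaluation Branch protocol.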

Data set [2] deals with MDA-MB-468 breast cancer cells. The data set can be described thus: cell cycle analysis by flow cytometry. Type of data set: cell-based. Particulars: 24 h at IC50 concentration (3.99 µM). An excerpt:
Cell cycle is composed of four distinct phases: G1, S, G2, and M[45]. Flow cytometry analysis of DNA ploidy in MDA-MB-468 breast cancer cells was used to evaluate the influence of compound 12d on normal cell cycle progression. […] Apoptosis and DNA fragmentation are possible mechanisms for 12d-induced cancer cell death based on the observed high increase in a pre-G1 cell population by 20 fold compared to the control.
The treated cells were centrifuged and maintained in ice-cold ethanol (70%) before being washed again with PBS and then re-suspended in RNase ([…]) followed by staining with 40 µg/mL PI, and analyzed by flow cytometry technique using a FACS Calibur (Becton Dickinson,BD, USA). Cell cycle distribution were calculated via CellQuest software 5.1 (Becton Dickinson),[63].
In general terms: In flow cytometry, cells or beads pass a laser one at a time.

The test system of data set [3] is MDA-MB-468 breast cancer cells. Description: Annexin V-FITC/propidium iodide apoptosis assay. Type of data set: cell-based. As for the experimental part:
Apoptosis of tumor cells is the principal therapeutic objective of antiproliferative agents. The apoptotic induction potential of 12d in MDA-MB-468 cells were assessed using the Annexin V/propidium iodide double staining assay,[48].
Cells apoptosis further analyzed by measuring phosphatidylserine externalization using V-FITC/PI apoptosis detection kit (BD Biosciences, USA) according manufacturer's instructions, as reported,[62].

Another data set concerns caspase 3. The data set can be described thus: Western blot of caspase 3 in MDA-MB-468 cells. It counts as cell-based.
Text: as §1, §2, §3, §4, §5

The test system of another data set is Leukemia (SR). The data set can be described thus: NCI single dose SRB screen, SR. It counts as cell-based. To be noted: 48 h, 10^−5 M single dose, read-out: GI% Leukemia (SR). A digest of the protocol:
as §6

The subject of data set [4] is normal human embryonic kidney cells (HEK-293). The data set can be described thus: normal cell line cytotoxicity (MTT), HEK-293. It counts as cell-based. The method, then:
All data was collected in triplicate, and IC50 values were calculated as the average of three separate trials.

The next data set concerns Leukemia (CCRF-CEM). Description: NCI single dose SRB screen, CCRF-CEM. Type of data set: cell-based. To be noted: normoxic condition (5% CO2, 95% air at 37 °C), NCI protocol. The method, then:
(§7) Target compounds in series (A) and (B), were submitted to the National Cancer Institute (NCI) Developmental Therapeutic Program (www.dtp.nci.nih.gov), where they have been assessed, in vitro for their anticancer activity. Two series (A) and (B), were screened in a single dose (10 µM) versus full panel composed of 60 cancer cell lines, in accordance with protocol of drug evaluation branch, NCI, Bethesda. Sulforhodamine B (SRB) colorimetric assay was used to determine cell growth and viability,[40].
(§8) Protocol of Drug Evaluation Branch, NCI, Bethesda, was adopted in the antitumor assay. Assessment of cell growth and viability was carried out utilizing SRB assay and 48 h drug exposure protocol as previously reported,[40].

Data set [5] has as its system Breast cancer (MDA-MB-468). Description: anti-proliferative activity under hypoxic condition (MTT), MDA-MB-468. Type of data set: cell-based. Particulars: for IC50: Homo sapiens, MDA-MB-468, hypoxic conditions (1%O2, 5% CO2 and 94% N2), mean ± S.D. of three experiments; for GI% Hypoxia MDA-MB-468: hypoxic condition (1% O2, 5% CO2, and 94%N2 at 37 °C). The method, then:
(§9) All cells were incubated in hypoxic atmosphere (1% O2, 5% CO2, and 94%N2) and maintained at 37 °C. All procedures to determine compounds cytotoxicity were accomplished using MTT assay as reported,[59],[60].

Another data set deals with breast cancer (T-47D). The data set can be described thus: NCI single dose SRB screen, T-47D. It counts as cell-based. To be noted: 10 µM single dose. The method, then:
as §7, §8

The next data set concerns the target T3, hCA I (Homo sapiens, UniProt P00915).
T3 construct: made in house
Description: stopped-flow CO2 hydrase assay, hCA I. To be noted: stopped flow technique, mean from 3 different assays. Type of data set: biochemical.

Another data set relates to leukemia (RPMI-8226). The data set can be described thus: NCI single dose SRB screen, RPMI-8226. Type of data set: cell-based. To be noted: 10 µM single dose. As for the experimental part:
as §7, §8

The next data set relates to leukemia (CCRF-CM). The data set can be described thus: anti-proliferative activity under hypoxic condition (MTT), CCRF-CM. To be noted: for GI% Hypoxia CCRF-CM: hypoxic condition (1% O2, 5% CO2, and 94%N2 at 37 °C); for IC50: hypoxic conditions (1%O2, 5% CO2 and 94% N2), mean ± S.D. of three experiments. Type of data set: cell-based. The method, then:
as §9

Another data set has as its target T4, hCA II (Homo sapiens, UniProt P00918).
T4 construct: made in house
The data set can be described thus: stopped-flow CO2 hydrase assay, hCA II. It counts as biochemical. Particulars: stopped flow technique, mean from 3 different assays.

Data set [6] has as its system non-small cell lung cancer (HOP-92). The data set can be described thus: NCI single dose SRB screen, HOP-92. Particulars: 10 µM single dose. Type of data set: cell-based. The method, then: as §7, §8
The subject of another data set is Renal cancer (UO-31). Description: NCI single dose SRB screen, UO-31. It counts as cell-based. Particulars: Homo sapiens, UO-31, 48 h, 10^−5 M single dose, read-out: GI% Renal cancer (UO-31). The gist of the method:
as §6

A further data set relates to CNS cancer (SNB-75). The data set can be described thus: NCI single dose SRB screen, SNB-75. Particulars: Homo sapiens, SNB-75, 48 h, 10^−5 M single dose, read-out: GI% CNS cancer (SNB-75). It counts as cell-based. The gist of the method: as §6
[7] abbreviates: Western blot, β-actin normalised.

“Also recorded” adds a separate entry of the source. Bounds are passed on as bounds.

Usually Ki stands for a dissociation constant, usually derived from enzyme kinetics or from competition with a known ligand. One may read the IC50 as the concentration that inhibits the measured activity by half. High values mean lower potency, low ones higher potency.

T1 sequence (O43570 25-354): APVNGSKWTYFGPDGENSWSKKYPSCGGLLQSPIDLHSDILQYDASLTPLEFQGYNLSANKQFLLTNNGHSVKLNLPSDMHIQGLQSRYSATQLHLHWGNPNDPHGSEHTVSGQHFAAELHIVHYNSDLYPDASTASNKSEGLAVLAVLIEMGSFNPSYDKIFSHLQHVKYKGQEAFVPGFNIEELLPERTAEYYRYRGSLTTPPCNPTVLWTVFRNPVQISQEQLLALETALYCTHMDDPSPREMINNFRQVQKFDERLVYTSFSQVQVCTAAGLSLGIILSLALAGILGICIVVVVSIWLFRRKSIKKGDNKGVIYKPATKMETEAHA
T3 sequence (P00915 whole entry): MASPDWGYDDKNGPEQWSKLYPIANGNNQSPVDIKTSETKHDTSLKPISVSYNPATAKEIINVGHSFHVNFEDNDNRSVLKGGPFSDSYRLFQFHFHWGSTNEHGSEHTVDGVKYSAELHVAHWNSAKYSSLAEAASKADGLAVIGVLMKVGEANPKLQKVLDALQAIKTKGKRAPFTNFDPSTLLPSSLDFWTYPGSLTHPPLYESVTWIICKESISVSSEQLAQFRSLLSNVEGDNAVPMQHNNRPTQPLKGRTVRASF

As to `CN(C)c1ccc(/C=C(\C#N)c2nc(N)nc(Nc3ccc(S(N)(=O)=O)cc3)n2)cc1` [Compound 12d, 4-({4-Amino-6-[(1E)-1-cyano-2-[4-(dimethylamino)phenyl]eth-1-en-1-yl]-1,3,5-triazin-2-yl}amino)benzene-1-sulfonamide], the “Selectivity index (SI) I/XII” value at hCA XII (hCA XII over off-target hCA I) stood at 3. The “Selectivity index (SI) II/XII” value on hCA XII (hCA XII over off-target hCA II) was determined as 2. The Ki on hCA XII came out at 188 nM; at hCA IX (stopped flow technique, mean from 3 different assays), 190 nM; on hCA I, 577 nM; on hCA II it was 364 nM. Also, on hCA IX (hCA IX over off-target hCA I), the “Selectivity index (SI) I/IX” value is given as 3. In addition, the “Selectivity index (SI) II/IX” value at hCA IX (hCA IX over off-target hCA II) stood at 2. The “cleaved caspase 9 expression relative to the control” value in the data set on caspase 9 (setting [7]) is reported as “increasing the level; also recorded: significant activation”. Also, the “Expression level of procaspase 9, Lane %, Mean ± SD” value with caspase 9 (treated 24 h, three replicates, control 40.53 ± 0.008) worked out at 25.30 ± 0.004%. For the same molecule, in the data set on caspase 9 (treated, first of two band lines (35/37 KDa), control 6.75 ± 0.008), the “Expression level of cleaved caspase 9, Lane %, Mean ± SD, first line” value was 6.04 ± 0.012%. Also, the “Expression level of cleaved caspase 9, Lane %, Mean ± SD, second line” value with caspase 9 (treated, second of two band lines (35/37 KDa), control 14.32 ± 0.004) came to 21.59 ± 0.004%. Further, the inhibition at 10 µM (in [1]; with Leukemia (SR)) was at least 50% in each case. Besides, in [1], the “GI% Normoxia MDA-MB-468” value amounted to 61.39%. Moreover, the “cell cycle arrest phases” value in data set [2] is “G0-G1 and S phases”. In addition, in data set [2], the “increase in pre-G1 cell population compared to the control” value was 20 fold. The “total increase in apoptotic cells compared to the control” value in [3] (annexin V-FITC positive cells) is recorded as “about 20 fold”. Besides, the “apoptotic cells in late apoptosis phase (UR)” value in [3] (annexin V-FITC/PI, control 0.11%) came to 17.66%. Further, in [3] (annexin V-FITC/PI, control 0.39%), the “apoptotic cells in early stage (LR)” value amounted to 2.76%. Further, in the data set with caspase 3 (setting [7]), the “cleaved caspase 3 expression relative to the control” value is given as “increasing the level; also recorded: significant activation”. Moreover, in the data set on caspase 3 (treated 24 h, three replicates, control 42.52 ± 0.013), the “Expression level of procaspase 3, Lane %, Mean ± SD” value came out at 27.81 ± 0.008%. The “Expression level of cleaved caspase 3, Lane %, Mean ± SD, first line” value with caspase 3 (treated, first of two band lines (17/19 KDa), control 4.91 ± 0.017) was 6.88 ± 0.008%. Besides, the “Expression level of cleaved caspase 3, Lane %, Mean ± SD, second line” value in the data set on caspase 3 (treated, second of two band lines (17/19 KDa), control 13.59 ± 0.0) worked out at 22.42 ± 0.0%. Also, the IC50 in data set [4] (Homo sapiens, HEK293, normal cells, mean ± SD of three independent experiments) is 68100 ± 3720 nM; in data set [5], 3990 ± 210 nM; in the data set with leukemia (CCRF-CM), 4510 ± 240 nM. Moreover, the “safety index relative to staurosporine” value in data set [4] (cancer versus normal cells) was “about twofold”. The “GI% Normoxia CCRF-CM” value in the data set with Leukemia (CCRF-CEM) is listed as 52.61%. In data set [5], the “GI% Hypoxia MDA-MB-468” value came to 59.38%. Besides, in the data set on breast cancer (T-47D), the “GI% breast cancer (T-47D)” value is on record as at least 50%. For the same molecule, the “GI% leukemia (RPMI-8226)” value in the data set on leukemia (RPMI-8226) was at least 50%. The “GI% Hypoxia CCRF-CM” value in the data set on leukemia (CCRF-CM) was found to be 55.82%.
For the molecule `N#C/C(=C\c1cccc(F)c1)c1nc(N)nc(Nc2ccc(S(N)(=O)=O)cc2)n1` [Compound 12i, 4-({4-Amino-6-[(1E)-1-cyano-2-(3-fluorophenyl)eth-1-en-1-yl]-1,3,5-triazin-2-yl}amino)benzene-1-sulfonamide], the Ki on hCA XII amounted to 182 nM; on hCA I it was 480 nM; on hCA II, 253 nM. Further, the inhibition at 10 µM is 17% in [1], 20% in the data set with Renal cancer (UO-31), at most 10% in the data set with Leukemia (SR) and at most 10% in the data set with CNS cancer (SNB-75). The “GI% Normoxia MDA-MB-468” value in data set [1] was determined as 16.58%. The “GI% non-small cell lung cancer (HOP-92)” value in [6] came to 16%. In the data set with Leukemia (CCRF-CEM), the “GI% Normoxia CCRF-CM” value was 0.76%. In addition, the figures for the IC50 (in [5]; in the data set on leukemia (CCRF-CM)) were 1480 ± 80 nM and 9830 ± 520 nM, respectively. Moreover, the “GI% Hypoxia MDA-MB-468” value in [5] was found to be 64.75%. Further, the “GI% Hypoxia CCRF-CM” value in the data set with leukemia (CCRF-CM) was found to be 50.14%.

The values are drawn from PMC9537541, “Synthesis and anticancer activity of new benzensulfonamides incorporating s-triazines as cyclic linkers for inhibition of carbonic anhydrase IX” (Scientific Reports, 2022).
